Eleven compounds from ChEMBL document CHEMBL1132001, “Generation of an Ugi library of phosphate mimic-containing compounds and identification of novel dual specific phosphatase inhibitors” (Bioorg Med Chem Lett, 1999) can be followed below.

The species entered for one test is Homo sapiens. The test can be described thus: Inhibition of dual specificity Cell division cycle 25.
In test [1] the target is Dual specificity protein phosphatase 3 (Homo sapiens) (UniProt P51452). The test can be described thus: Compound was evaluated for its activity against VHR.
Dual specificity protein phosphatase 3 (Homo sapiens), sequence (P51452 whole entry, looked up): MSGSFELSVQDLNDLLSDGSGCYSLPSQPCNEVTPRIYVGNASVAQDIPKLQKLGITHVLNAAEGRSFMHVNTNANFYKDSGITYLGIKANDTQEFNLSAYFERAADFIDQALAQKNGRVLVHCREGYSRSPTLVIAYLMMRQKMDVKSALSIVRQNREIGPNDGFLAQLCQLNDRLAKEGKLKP
Test [2] is described as follows: Compound was evaluated for its activity against PTP1B (a tyrosine phosphatase).

With `CC(C)=CCCC(C)C(C(=O)NC1CCCCC1)N(Cc1ccc2c(c1)OCO2)C(=O)c1ccc(CP(=O)(O)O)cc1` (centres undefined), the Activity in the test filed under Homo sapiens was 23 µM; in test [1] it was 19 µM; in test [2] it was 73 µM.

Consider `O=C(NC(Cc1ccc(O)cc1)C(=O)N(CCc1c[nH]c2ccccc12)C(C(=O)NCCN1CCOCC1)c1ccc(OCP(=O)(O)O)cc1)OCC1c2ccccc2-c2ccccc21` (centres undefined), for which the results for the Activity (in the test listed under Homo sapiens; in test [1]; in test [2]) were 8 µM, 6.1 µM and 16 µM, respectively.

With `O=C(O)CNC(=O)C(c1nccs1)N(Cc1ccc2c(c1)OCO2)C(=O)c1ccc(CP(=O)(O)O)cc1` (centres undefined), the Activity in the test listed under Homo sapiens was 35 µM; in test [1] it was > 9 µM; in test [2], > 96 µM.

`O=C(O)C(Oc1ccc(C(=O)N(Cc2ccc3c(c2)OCO3)C(C(=O)NC2CCCCC2)c2ccc(OC(C(=O)O)C(=O)O)cc2)cc1)C(=O)O` (centres undefined): the Activity in the test filed under Homo sapiens amounted to 3 µM; in test [1] it was 9 µM; in test [2], 89 µM.

With `Cc1ccc(S(=O)(=O)CNC(=O)C(c2ccc(OCP(=O)(O)O)cc2)N(CCc2c[nH]c3ccccc23)C(=O)c2cc(Br)cc(Br)c2O)cc1` (centres undefined), the Activity was 10 µM in the test filed under Homo sapiens, > 120 µM in test [1] and 95 µM in test [2].

Take `CC(C)=CCCC(C)C(C(=O)NC1CCCCC1)N(CCc1c[nH]c2ccccc12)C(=O)c1ccc(C(F)(F)P(=O)(O)O)cc1` (centres undefined): the Activity in the test listed under Homo sapiens amounted to 27 µM.

As for `O=C(NC1CCCCC1)C(c1ccnc2ccccc12)N(CCc1c[nH]c2ccccc12)C(=O)c1ccc(CP(=O)(O)O)cc1` (centres undefined), the Activity is 16 µM in the test listed under Homo sapiens, 87 µM in test [1] and > 160 µM in test [2].

For the compound `O=C(O)C(Oc1ccc(C(=O)N(Cc2ccc3c(c2)OCO3)C(C(=O)NC2CCCCC2)c2ccc(OCP(=O)(O)O)cc2)cc1)C(=O)O` (centres undefined), the Activity in the test listed under Homo sapiens is 0.7 µM; in test [1] it was 5 µM; in test [2], 82 µM.

For the compound `O=C(O)C(Oc1ccc(C(C(=O)NC2CCCCC2)N(Cc2ccc3c(c2)OCO3)C(=O)c2ccc(CP(=O)(O)O)cc2)cc1)C(=O)O` (centres undefined), the Activity in the test filed under Homo sapiens came out at 3 µM; in test [1], 11 µM; in test [2] it was 107 µM.

In the test filed under Homo sapiens, `CC(C)/C=C\CC(C)C(C(=O)NCC(=O)O)N(CCc1c[nH]c2ccccc12)C(=O)c1cc(Br)cc(Br)c1O` (centres undefined) returned an Activity of 15 µM.

For `CC(C)=CCCC(C)C(C(=O)NC1CCCCC1)N(CCc1c[nH]c2ccccc12)C(=O)c1ccc(CP(=O)(O)O)cc1` (centres undefined), the Activity in the test listed under Homo sapiens turned out to be 23 µM; in test [1] it was 17 µM; in test [2], 61 µM.
